Consider 32 compounds from patent US20180110824A1, “Macrocyclic Modulators of the Ghrelin Receptor” (Ocera Therapeutics, Inc., priority 2016, published 2018).

The term Ki denotes the equilibrium dissociation constant of an inhibitor or competing ligand from its target. The EC50 is the concentration needed to bring the measured effect to its halfway point.

In experiment [1] the target is T1, human growth hormone secretagogue receptor (hGHS-R1a) (Homo sapiens, UniProt Q92847).
T1 construct: purchased PerkinElmer BioSignal #RBHGHSM; host or cells: HEK-293, stably transfected
In words: Competitive radioligand binding assay (ghrelin receptor), [125I]-ghrelin displacement on GHS-R/HEK 293 membranes. As to conditions: read-out: Ki.

A further experiment deals with motilin receptor (Homo sapiens, UniProt O43193). The experiment is described as follows: Selectivity for the ghrelin receptor versus the motilin receptor. The experiment is classed as binding. The text has this: The level of agonist activity and selectivity for representative compounds of the invention are shown below in Table 4.
The target in experiment [2] is T2, human ghrelin receptor (hGHS-R1a) (Homo sapiens, UniProt Q92847).
T2 construct: host or cells: CHO-K1 co-expressing Gα16 and mitochondrially targeted aequorin
In words: Aequorin functional assay (ghrelin receptor), CHO-K1 cells co-expressing Gα16 and aequorin. The class given is cell-based. As to conditions: Table 4; functional (agonist) activity; TFA salts unless otherwise noted; read-out: EC50. The protocol:
This cell line is typically constructed by transfection of the human ghrelin receptor into CHO-K1 cells co-expressing Gα16 and the mitochondrially targeted Aequorin (Ref #ES-WT-A5). • 1. […] Assay buffer: DMEM (Dulbecco's Modified Eagles Medium) containing 0.1% BSA (bovine serum albumin; pH 7.0). • 3. Coelenterazine (Molecular Probes, Leiden, The Netherlands). • Final test concentrations (N=8) for compounds of the invention: 10, 1, 0.3, 0.1, 0.03, 0.01, 0.003, 0.001 μM.
Stock solutions of compounds (10 mM in 100% DMSO) were provided frozen on dry ice and stored at −20° C. prior to use. […] Assay plates were then prepared by appropriate dilution in DMEM medium containing 0.1% BSA. Under these conditions, the maximal final DMSO concentration in the assay was <0.6%.
AequoScreen™ cells were collected from culture plates with Ca^2+ and Mg^2+-free phosphate buffered saline (PBS) supplemented with 5 mM EDTA, pelleted for 2 min at 1000×g re-suspended in DMEM—Ham's F12 containing 0.1% BSA at a density of 5×10^6 cells/mL, and incubated O/N at rt in the presence of 5 μM coelenterazine. After loading, cells were diluted with assay buffer to a concentration of 5×10^5 cells/mL.
For agonist testing, 50 μL of the cell suspension was mixed with 50 μL of the appropriate concentration of test compound or ghrelin (reference agonist) in 96-well plates (duplicate samples). Ghrelin (reference agonist) was tested at several concentrations concurrently with the test compounds in order to validate the experiment. The emission of light resulting from receptor activation in response to ghrelin or test compounds was recorded using the Hamamatsu FDSS 6000 reader (Hamamatsu Photonics K.K., Japan).
Results were expressed as Relative Light Units (RLU). […] EC50, Hill slope and % Emax values are reported.
• 1. Assay performed on CHO-K1 cells expressing the transfected, cloned human ghrelin receptor (hGHS-R1a) and Gα16. • 2. Suspended cells incubated O/N with coelenterazine. • 3. Stimulation of hGHS-R1a activates Gα16, causing […] Ca2+ release which ultimately leads to the oxidation of coelenterazine and the emission of a quantitative luminescent signal. • 4. Ghrelin was used as the positive control. • 5.

Setting [3] is: Table 3B, binding activity at the human ghrelin receptor.
Where [4] appears, read: Table 4, TFA salts unless otherwise noted.
Where [5] appears, read: Binding activity at the human ghrelin receptor, [125I]-ghrelin displacement.

Read-outs that look alike come from different tables or passages of the source.

Sequence of motilin receptor (O43193 whole entry, species assumed): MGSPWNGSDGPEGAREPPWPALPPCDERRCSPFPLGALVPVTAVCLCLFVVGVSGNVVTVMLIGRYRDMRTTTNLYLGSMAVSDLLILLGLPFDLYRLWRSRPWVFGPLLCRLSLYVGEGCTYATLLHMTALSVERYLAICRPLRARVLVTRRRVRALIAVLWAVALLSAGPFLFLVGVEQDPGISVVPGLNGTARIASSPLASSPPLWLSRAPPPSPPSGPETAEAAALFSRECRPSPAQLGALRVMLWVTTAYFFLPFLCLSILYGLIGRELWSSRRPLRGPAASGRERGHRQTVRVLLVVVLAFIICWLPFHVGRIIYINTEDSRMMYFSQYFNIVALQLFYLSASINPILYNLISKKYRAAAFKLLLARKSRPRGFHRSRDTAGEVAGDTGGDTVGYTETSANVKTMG
T1 sequence (Q92847 whole entry): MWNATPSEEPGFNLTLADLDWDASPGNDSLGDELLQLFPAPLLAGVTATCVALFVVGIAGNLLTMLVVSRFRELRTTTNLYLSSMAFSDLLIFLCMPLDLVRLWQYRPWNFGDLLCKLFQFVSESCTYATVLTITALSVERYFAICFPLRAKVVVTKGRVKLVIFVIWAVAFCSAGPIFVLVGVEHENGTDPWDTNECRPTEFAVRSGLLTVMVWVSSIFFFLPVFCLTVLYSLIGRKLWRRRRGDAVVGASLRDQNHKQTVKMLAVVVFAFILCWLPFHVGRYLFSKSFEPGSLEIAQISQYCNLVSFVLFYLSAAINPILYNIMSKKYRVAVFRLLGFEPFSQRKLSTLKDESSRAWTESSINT
T2 sequence (Q92847 whole entry): as above

In the case of `C[C@@H]1C(=O)N[C@H](Cc2ccc(O)c(C(C)(C)C)c2)C(=O)NCCCc2ccccc2OCCN[C@@H](C2CC2)C(=O)N1C` [compound 311], the Ki in experiment [1] (setting [3]) and in experiment [1] (setting [4]) was 10 to 100 nM each time. The Selectivity on motilin receptor is recorded as 21/1.
As to `C[C@@H]1C(=O)N[C@H](Cc2ccc(F)cc2)C(=O)NCCCc2ccc(F)cc2OCCN[C@@H](C2CC2)C(=O)N1C` [compound 372], the EC50 in experiment [2] was 1 to 100 nM. For the same compound, the Ki in experiment [1] (setting [3]) and in experiment [1] (setting [4]) was 0.1 to 10 nM throughout. Moreover, the Selectivity on motilin receptor was 2500/1.
Regarding `CCCC1NCCOc2ccccc2C=CCNC(=O)C(Cc2ccccc2)NC(=O)C(C)N(C)C1=O` (stereo not shown) [compound 39], the Selectivity on motilin receptor is 3400/1.
Take `CCC(C)C1NCCOc2ccccc2CCCNC(=O)C(CC(C)C)NC(=O)C(C)N(C)C1=O` (stereo not shown) [compound 176]: the Selectivity at motilin receptor is on record as 105/1.
With `CCC[C@@H]1NCCOc2ccccc2CCCNC(=O)[C@@H](Cc2ccc(O)cc2)NC(=O)CN(C)C1=O` [compound 7], in experiment [2], the EC50 fell in the range of 1 to 100 nM. Further, the inhibitory constant (Ki) in experiment [1] (setting [5]) and in experiment [1] (setting [4]) was 100 to 1000 nM throughout. Further, the Selectivity at motilin receptor is on record as >100/1.
Take `CC(C)[C@@H]1NCCOc2ccccc2CCCNC(=O)[C@H](Cc2ccccc2)NC(=O)C2(CCCC2)NC1=O` [Compound 9]: the EC50 in experiment [2] was 100 to 1000 nM. Further, the Ki in experiment [1] (setting [5]) and in experiment [1] (setting [4]) was 100 to 1000 nM in each case. The Selectivity at motilin receptor is recorded as 117/1.
Turning to `C[C@@H]1C(=O)N[C@H](Cc2ccc(F)cc2)C(=O)NCCCc2ncccc2OCCN[C@@H](C2CC2)C(=O)N1C` [306a], the EC50 in experiment [2] lay within 1 to 100 nM. The Ki in experiment [1] (setting [3]) and in experiment [1] (setting [4]) was 10 to 100 nM throughout. The Selectivity at motilin receptor is recorded as 714/1.
`O=C1NC/C=C/c2ccccc2OCCNC2(CCCC2)C(=O)NC2(CCCC2)C(=O)N[C@H]1Cc1ccccc1` [compound 18]: the EC50 in experiment [2] lay within 1 to 100 nM. Besides, the Ki in experiment [1] (setting [5]), in experiment [1] (Table 3C) and in experiment [1] (setting [4]) was 10 to 100 nM throughout. The Selectivity on motilin receptor is 222/1.
As to `CCC(C)C1NCCOc2ccccc2CCCNC(=O)C(Cc2ccc(F)cc2)NC(=O)C(C)N(C)C1=O` (stereo not shown) [compound 26], the EC50 in experiment [2] lay in the range of 1 to 100 nM. Moreover, the Ki in experiment [1] (setting [5]) and in experiment [1] (setting [4]) was 0.1 to 10 nM throughout. Besides, the Selectivity at motilin receptor is >7700/1.
For the compound `CCC[C@@H]1NCCOc2ccccc2CCCNC(=O)[C@@H](Cc2c[nH]c3ccccc23)NC(=O)CN(C)C1=O` [Compound 6], the EC50 in experiment [2] was 1 to 100 nM. Moreover, the Ki in experiment [1] (setting [5]) and in experiment [1] (setting [4]) was 100 to 1000 nM in each case. Further, at motilin receptor, the Selectivity is given as 71/1.
Consider `CC(C)C1NCCOc2ccccc2C=CCNC(=O)C(Cc2ccccc2)NC(=O)C(C)N(C)C1=O` (stereo not shown) [compound 19], for which, at motilin receptor, the Selectivity is on record as >1700/1.
Turning to `CCC(C)[C@@H]1NCCOc2ccccc2/C=C/CNC(=O)[C@H](Cc2cccc(Cl)c2)NC(=O)C2(CCCC2)NC1=O` (stereo partly shown) [345a], in experiment [2], the EC50 was 1 to 100 nM. Also, the Ki in experiment [1] (setting [3]) lay in the range of 100 to 1000 nM; in experiment [1] (setting [4]), 10 to 100 nM. Also, the Selectivity at motilin receptor is >159/1.
For the compound `CC(C)C[C@@H]1NCCOc2ccccc2/C=C/CNC(=O)[C@H](Cc2cccc(Cl)c2)NC(=O)C2(CCCC2)NC1=O` [compound 21], the EC50 in experiment [2] is 1 to 100 nM. For the same compound, the Ki in experiment [1] (setting [5]) and in experiment [1] (setting [4]) was 0.1 to 10 nM in each case. The Selectivity at motilin receptor was 1078/1.
In the case of `C[C@@H]1C(=O)N[C@H](Cc2ccccc2)C(=O)NCCCc2ccccc2OCCN[C@@H](C2CC2)C(=O)N1C` [compound 17], in experiment [2], the EC50 lay in the range of 1 to 100 nM. Also, the Ki in experiment [1] (setting [5]) and in experiment [1] (setting [4]) was 0.1 to 10 nM throughout. At motilin receptor, the Selectivity is listed as 2500/1.
Regarding `CCC(C)C1NCCOc2ccccc2C=CCNC(=O)C(Cc2ccccc2)NC(=O)C(C)N(C)C1=O` (stereo not shown) [compound 40], the Selectivity at motilin receptor was >3300/1.
As to `CCCC1NCCOc2ccccc2CCCNC(=O)C(Cc2ccccc2)NC(=O)C(C)N(C)C1=O` (stereo not shown) [Compound 4], on motilin receptor, the Selectivity was 3012/1.
Take `C[C@H]1NC(=O)C2(CCCC2)NCCOc2ccccc2/C=C/CNC(=O)[C@H](Cc2cccc(Cl)c2)NC1=O` [compound 351]: in experiment [2], the EC50 was in the range of 1 to 100 nM. Also, the Ki in experiment [1] (Table 3C) and in experiment [1] (setting [4]) was 10 to 100 nM throughout. Also, at motilin receptor, the Selectivity is listed as 450/1.
Turning to `CC1COc2ccccc2CCCNC(=O)C(Cc2ccc(F)cc2)NC(=O)C(C)N(C)C(=O)C(C2CC2)N1` (stereo not shown) [compound 394], at motilin receptor, the Selectivity is 1700/1.
As to `C[C@@H]1C(=O)N[C@H](Cc2ccc(F)cc2)C(=O)NCCCc2cc(NS(C)(=O)=O)ccc2OCCN[C@@H](C2CC2)C(=O)N1C` [compound 374], in experiment [2], the concentration for a half-maximal effect (EC50) fell in the range of 1 to 100 nM. The Ki in experiment [1] (setting [3]) and in experiment [1] (setting [4]) was 10 to 100 nM each time. Also, at motilin receptor, the Selectivity is recorded as 250/1.
With `CC(C)C[C@@H]1NCCOc2ccccc2/C=C/CNC(=O)[C@H](Cc2ccccc2)NC(=O)C2(CCCC2)NC1=O` [Compound 8], the EC50 in experiment [2] is 1 to 100 nM. Also, the Ki in experiment [1] (setting [5]) and in experiment [1] (setting [4]) was 10 to 100 nM each time. Moreover, on motilin receptor, the Selectivity is on record as 200/1.
As for `CCC(C)C1NCCOc2ccccc2CCCNC(=O)C(Cc2ccc3ccccc3c2)NC(=O)C(C)N(C)C1=O` (stereo not shown) [compound 31], on motilin receptor, the Selectivity was 4900/1.
Same read-out and setting: the value for `CCC(C)C1NCCOc2ccccc2CCCNC(=O)C(Cc2ccccc2)NC(=O)C(C)N(C)C1=O` (stereo not shown) [compound 15] was >1700/1; that for `CCC(C)C1NCCOc2ccccc2CCCNC(=O)C(Cc2cccs2)NC(=O)C(C)N(C)C1=O` (stereo not shown) [compound 34] was >1000/1.
The same measure, in the same setting: the value for `CC1(C)NC(=O)C2(CCCC2)NCCOc2ccccc2/C=C/CNC(=O)[C@H](Cc2cccc(Cl)c2)NC1=O` [compound 334] was 346/1.
In the case of `CC[C@H](C)[C@@H]1NCCOc2ccc(F)cc2CCCNC(=O)[C@H](Cc2cccc(Cl)c2)NC(=O)C2(CCCC2)NC1=O` [compound 382], in experiment [2], the EC50 lay within 100 to 1000 nM. The Ki in experiment [1] (setting [3]) and in experiment [1] (setting [4]) was 10 to 100 nM throughout. Also, the Selectivity at motilin receptor was 74/1.
As for `CC(C)C[C@@H]1NCCOc2ccccc2/C=C/CNC(=O)[C@H](Cc2ccccc2Cl)NC(=O)C2(CCCC2)NC1=O` [compound 20], on motilin receptor, the Selectivity is given as 1044/1.
`CCC(C)[C@@H]1NCCOc2ccccc2CCCNC(=O)[C@@H](Cc2ccc(OC)cc2)NC(=O)[C@@H](C)N(C)C1=O` (stereo partly shown) [compound 27]: in experiment [2], the EC50 lay in the range of 1 to 100 nM. Moreover, the Ki in experiment [1] (setting [5]) and in experiment [1] (setting [4]) was 0.1 to 10 nM each time. In addition, the Selectivity on motilin receptor is recorded as >7100/1.
As to `CC[C@@H](C)[C@@H]1NCCOc2ccccc2CCCNC(=O)[C@@H](Cc2ccccc2)NC(=O)[C@@H](C)N(C)C1=O` [compound 16], the Selectivity at motilin receptor is on record as >2000/1.
On to `CCCC[C@@H]1NCCOc2ccccc2CCCNC(=O)[C@@H](Cc2ccccc2)NC(=O)CN(C)C1=O` [Compound 1], for which the EC50 in experiment [2] lay in the range of 100 to 1000 nM. The Ki in experiment [1] (setting [5]) and in experiment [1] (setting [4]) was 10 to 100 nM in each case. Also, the Selectivity on motilin receptor is 142/1.
Turning to `CCC(C)C1NCCOc2ccccc2CCCNC(=O)C(Cc2ccccc2)NC(=O)C(C)N(C)C1=O` (stereo not shown) [compound 42], the Selectivity at motilin receptor is recorded as 4300/1.
On to `CC[C@H](C)[C@@H]1NCCCCCCCCNC(=O)[C@H](Cc2cccc(Cl)c2)NC(=O)C2(CCCC2)NC1=O` [compound 363], for which the Ki in experiment [1] (setting [3]) and in experiment [1] (setting [4]) was 100 to 1000 nM each time. Moreover, the Selectivity at motilin receptor is on record as 35/1.
Take `CCC(C)C1NCCOc2ccccc2CCCNC(=O)C(Cc2cccc(Cl)c2)NC(=O)C(C)N(C)C1=O` (stereo not shown) [compound 24]: on motilin receptor, the Selectivity was 3039/1.
